Target: full-length human O-GlcNAc-β-N-acetylglucosaminidase (OGA) (Homo sapiens (Human), UniProt O60502)
Test: In Vitro Human OGA Enzyme Assay
Type: biochemical
Conditions: His-OGA enzyme, FD-GlcNAc substrate 6.7 μM, 30 min pre-incubation, 60 min at room temperature, pH 7
Method: In Vitro Human OGA Enzyme Assay
The nucleotide sequence encoding full-length human O-GlcNAc-β-N-acetylglucosaminidase (NM_012215) is inserted into pFastBac1 (Invitrogen) vector with an N-terminal poly-histidine (HIS) tag. Baculovirus generation is carried out according to the Bac-to-Bac Baculovirus Expression system (Invitrogen) protocol. Sf9 cells are infected at 1.5×10^6 cells/mL using 10 mL of P1 virus per Liter of culture and incubated at 28° C. for 48 hrs. Cells are spun down, rinsed with PBS and the pellets stored at −80° C. The above OGA protein (His-OGA) is purified as follows: 4 L of cells are lysed in 200 mL of buffer containing 50 mM Tris, pH 8.0, 300 mM NaCl, 10% glycerol, 10 mM imidazole, 1 mM dithiothreitol (DTT), 0.1% Triton™ X-100, 4 tablets of protease inhibitors (complete EDTA-Free, Roche) for 45 min at 4° C. This cell lysate is then spun for 40 min at 16500 rpm at 4° C., and supernatant incubated with 6 mL of Ni-NTA resin (nickel-nitrilotriacetic acid) for 2 h at 4° C.
Resin is then packed onto column and washed with 50 mM Tris, pH 8.0, 300 mM NaCl, 10% glycerol, 10 mM imidazole, 0.1% Triton™ X-100, 1 mM DTT, followed by 50 mM Tris, pH 8.0, 150 mM NaCl, 10 mM imidazole, 10% glycerol, 1 mM DTT. The proteins are eluted with 50 mM Tris, pH 8.0, 150 mM NaCl, 300 mM imidazole, 10% glycerol, 1 mM DTT. Pooled His-OGA containing fractions are concentrated to 6 ml and loaded onto Superdex75 (16/60). The protein is eluted with 50 mM Tris, pH 8.0, 150 mM NaCl, 10% glycerol, 2 mM DTT. Fractions containing His-OGA are pooled and protein concentration measured with BCA ([…]).
The OGA enzyme catalyses the removal of O-GlcNAc from nucleocytoplasmic proteins. To measure this activity Fluorescein di-N-acetyl-β-N-acetyl-D-glucosaminide (FD-GlcNAc, Kim, Eun Ju; Kang, Dae Ook; Love, Dona C.; Hanover, John A. Carbohydrate Research (2006), 341(8), 971-982) is used as a substrate at a final concentration of 6.7 μM. This fluorogenic substrate becomes fluorescent upon cleavage by OGA, so that the enzyme activity can be measured by the increase in fluorescence detected at 535 nm (excitation at 485 nm).
The assay buffer is prepared to give a final concentration of 50 mM […], 0.01% bovine serum albumin and 0.01% Triton™ X-100 in water, at pH 7. Compounds to be tested are diluted in pure dimethyl sulfoxide (DMSO) using ten point concentration response curves. Maximal compound concentration in the reaction mixture is 30 or 1 μM. Compounds at the appropriate concentration are pre-incubated with OGA enzyme for 30 minutes before the reaction is started by the addition of substrate. The final enzyme concentration is 3.24 nM or 0.5 nM, for the 30 or 1 μM maximal compound concentration, respectively. Reactions are allowed to proceed for 60 min at room temperature. Then, without stopping the reaction, fluorescence is read. IC50 values are calculated by plotting the normalized data vs. log of the compound and fitting the data using a four parameter logistic equation.
The compounds of Examples 1 through 6 were tested essentially as described above.

full-length human O-GlcNAc-β-N-acetylglucosaminidase (OGA), sequence (O60502 whole entry): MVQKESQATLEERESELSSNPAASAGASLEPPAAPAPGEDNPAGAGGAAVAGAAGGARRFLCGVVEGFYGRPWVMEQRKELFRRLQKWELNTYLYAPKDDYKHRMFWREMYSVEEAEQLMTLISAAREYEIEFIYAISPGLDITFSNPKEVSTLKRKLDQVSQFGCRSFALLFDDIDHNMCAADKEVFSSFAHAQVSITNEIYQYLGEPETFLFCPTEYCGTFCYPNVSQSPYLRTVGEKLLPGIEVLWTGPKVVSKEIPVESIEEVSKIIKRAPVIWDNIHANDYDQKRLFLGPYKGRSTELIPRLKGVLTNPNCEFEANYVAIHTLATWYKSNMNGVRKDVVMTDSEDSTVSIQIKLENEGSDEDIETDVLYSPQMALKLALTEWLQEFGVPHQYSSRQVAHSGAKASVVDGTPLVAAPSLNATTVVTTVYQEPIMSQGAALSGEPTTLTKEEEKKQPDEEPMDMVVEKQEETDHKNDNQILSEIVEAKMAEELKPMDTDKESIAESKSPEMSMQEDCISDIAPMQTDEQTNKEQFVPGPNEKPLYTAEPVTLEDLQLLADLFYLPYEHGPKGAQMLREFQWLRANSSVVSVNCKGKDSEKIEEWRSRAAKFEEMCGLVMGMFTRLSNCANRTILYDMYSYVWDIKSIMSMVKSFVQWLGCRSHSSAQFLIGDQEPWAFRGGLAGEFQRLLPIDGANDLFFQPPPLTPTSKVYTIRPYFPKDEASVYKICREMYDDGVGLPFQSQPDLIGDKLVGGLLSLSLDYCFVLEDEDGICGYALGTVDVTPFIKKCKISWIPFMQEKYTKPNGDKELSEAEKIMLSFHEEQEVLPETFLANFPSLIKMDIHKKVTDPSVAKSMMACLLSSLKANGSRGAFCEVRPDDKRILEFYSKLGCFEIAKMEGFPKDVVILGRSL

SMILES | IC50 [pM]
CC(=O)N1Cc2cnc(O[C@@H]3C[C@H](C)N([C@@H](C)c4cc5nc(C)sc5cc4F)C3)nc2C1 [Example 5, 1-[2-[(3R,5S)-1-[(1S)-1-(6-fluoro-2-methyl-1,3-benzothiazol-5-yl)ethyl]-5-methyl-pyrrolidin-3-yl]oxy-5,7-dihydropyrrolo[3,4-d]pyrimidin-6-yl]ethanone] | 495 ± 109
CC(=O)N1Cc2cnc(O[C@@H]3C[C@H](C)N(Cc4cc5nc(C)sc5cc4F)C3)nc2C1 [Example 1, 1-(2-(((3R,5S)-1-((6-fluoro-2-methylbenzo[d]thiazol-5-yl)methyl)-5-methylpyrrolidin-3-yl)oxy)-5,7-dihydro-6H-pyrrolo[3,4-d]pyrimidin-6-yl)ethan-1-one] | 465 ± 224
CC(=O)N1Cc2cc(O[C@@H]3C[C@H](C)N(Cc4cc5nc(C)sc5cc4F)C3)cnc2C1 [Example 4, 1-[3-[(3R,5S)-1-[(6-fluoro-2-methyl-1,3-benzothiazol-5-yl)methyl]-5-methyl-pyrrolidin-3-yl]oxy-5,7-dihydropyrrolo[3,4-b]pyridin-6-yl]ethanone] | 592 ± 68
CC(=O)N1Cc2ccc(O[C@@H]3C[C@H](C)N([C@@H](C)c4cc5nc(C)sc5cc4F)C3)nc2C1 [Example 6, 1-[2-[(3R,5S)-1-[(1S)-1-(6-fluoro-2-methyl-1,3-benzothiazol-5-yl)ethyl]-5-methyl-pyrrolidin-3-yl]oxy-5,7-dihydropyrrolo[3,4-b]pyridin-6-yl]ethanone] | 385 ± 88
CC(=O)N1Cc2ccc(O[C@@H]3C[C@H](C)N(Cc4cc5nc(C)sc5cc4F)C3)nc2C1 [Example 2, 1-(2-(((3R,5S)-1-((6-fluoro-2-methylbenzo[d]thiazol-5-yl)methyl)-5-methylpyrrolidin-3-yl)oxy)-5,7-dihydro-6H-pyrrolo[3,4-b]pyridin-6-yl)ethan-1-one] | 214 ± 37
CC(=O)N1Cc2cnc(O[C@@H]3C[C@H](C)N(Cc4cc5nc(C)sc5cc4F)C3)cc2C1 [Example 3, 1-[6-[(3R,5S)-1-[(6-fluoro-2-methyl-1,3-benzothiazol-5-yl)methyl]-5-methyl-pyrrolidin-3-yl]oxy-1,3-dihydropyrrolo[3,4-c]pyridin-2-yl]ethanone] | 782 ± 87

Reference: patent publication US10752632B2, “6-fluoro 2-methylbenzo[d]thiazol-5-yl compounds” (Eli Lilly and Company, priority 2018, dated 2020)
